Test results as given in PubChem BioAssay AID2060898 (Molecular Pharmacology Branch, DTP, NCI, 2025).
One block for each compound: values may come before it.

Test system: 616215-338-R-J1-PDC complex spheroid viability
Assay: Anticancer human tumor 616215-338-R-J1-PDC patient-derived colon adenocarcinoma cell line growth inhibition [RAS]
Details: for IC50: curve of first compound; for viability, T/C: stronger effect = lower value
How it was run: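 Tumour cells grown as complex spheroids with HUVEC endothelial cells and mesenchymal stem cells, treated with RAS pathway inhibitor combinations. Each agent spans half-log steps from near clinical Cmax, or 10 microM where Cmax is unknown.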
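Note: spheroids exposed to agents for seven days before viability readout.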
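Throughout, for viability, T/C: 100% = DMSO vehicle control viability.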

IC50 (second compound 0.000949 µM): > 10 µM | IC50 (second compound 0.003 µM): > 10 µM | IC50 (second compound 0.00949 µM): 0.281 µM | IC50 (second compound 0.03 µM): < 0.0316 µM | IC50 (second compound 0.0949 µM): < 0.0316 µM | IC50 (second compound 0.3 µM): < 0.0316 µM
SMILES: CC(Nc1ccc2c(c1)OCCn1cc(N3C(=O)OCC3C(F)F)nc1-2)C(N)=O (centres undefined) + CCn1c(-c2cc(N3CCN(C)CC3)cnc2C(C)OC)c2c3cc(ccc31)-c1csc(n1)CC(NC(=O)C1CC1C)C(=O)N1CCCC(N1)C(=O)OCC(C)(C)C2
viability, T/C (second compound 0.000949 µM, first compound 0.0316 µM): 114% | viability, T/C (second compound 0.000949 µM, first compound 0.1 µM): 106% | viability, T/C (second compound 0.000949 µM, first compound 0.316 µM): 103% | viability, T/C (second compound 0.000949 µM, first compound 1 µM): 117% | viability, T/C (second compound 0.000949 µM, first compound 3.16 µM): 94.6% | viability, T/C (second compound 0.000949 µM, first compound 10 µM): 74.5% | viability, T/C (second compound 0.003 µM, first compound 0.0316 µM): 109% | viability, T/C (second compound 0.003 µM, first compound 0.1 µM): 99.5% | viability, T/C (second compound 0.003 µM, first compound 0.316 µM): 85.5% | viability, T/C (second compound 0.003 µM, first compound 1 µM): 83.2% | viability, T/C (second compound 0.003 µM, first compound 3.16 µM): 91.4% | viability, T/C (second compound 0.003 µM, first compound 10 µM): 69% | viability, T/C (second compound 0.00949 µM, first compound 0.0316 µM): 90.9% | viability, T/C (second compound 0.00949 µM, first compound 0.1 µM): 63.5% | viability, T/C (second compound 0.00949 µM, first compound 0.316 µM): 48.4% | viability, T/C (second compound 0.00949 µM, first compound 1 µM): 48.9% | viability, T/C (second compound 0.00949 µM, first compound 3.16 µM): 47.7% | viability, T/C (second compound 0.00949 µM, first compound 10 µM): 48% | viability, T/C (second compound 0.03 µM, first compound 0.0316 µM): 37.4% | viability, T/C (second compound 0.03 µM, first compound 0.1 µM): 41.2% | viability, T/C (second compound 0.03 µM, first compound 0.316 µM): 28.6% | viability, T/C (second compound 0.03 µM, first compound 1 µM): 37.1% | viability, T/C (second compound 0.03 µM, first compound 3.16 µM): 38.1% | viability, T/C (second compound 0.03 µM, first compound 10 µM): 28.2% | viability, T/C (second compound 0.0949 µM, first compound 0.0316 µM): 33.3% | viability, T/C (second compound 0.0949 µM, first compound 0.1 µM): 31.9% | viability, T/C (second compound 0.0949 µM, first compound 0.316 µM): 28.7% | viability, T/C (second compound 0.0949 µM, first compound 1 µM): 25.9% | viability, T/C (second compound 0.0949 µM, first compound 3.16 µM): 23.2% | viability, T/C (second compound 0.0949 µM, first compound 10 µM): 25.3% | viability, T/C (second compound 0.3 µM, first compound 0.0316 µM): 37.8% | viability, T/C (second compound 0.3 µM, first compound 0.1 µM): 40.5% | viability, T/C (second compound 0.3 µM, first compound 0.316 µM): 27.5% | viability, T/C (second compound 0.3 µM, first compound 1 µM): 29.3% | viability, T/C (second compound 0.3 µM, first compound 3.16 µM): 25.3% | viability, T/C (second compound 0.3 µM, first compound 10 µM): 23.5%

IC50 (second compound 0.00316 µM): > 10 µM | IC50 (second compound 0.01 µM): > 10 µM | IC50 (second compound 0.0316 µM): > 10 µM | IC50 (second compound 0.1 µM): 9.75 µM | IC50 (second compound 0.316 µM): > 10 µM | IC50 (second compound 1 µM): > 10 µM
SMILES: C[C@@H](NC(=O)c1ncnc(N)c1Cl)c1ncc(C(=O)Nc2cc(C(F)(F)F)c(Cl)cn2)s1 + C=CC(=O)N1CCN(c2nc(OCC3CCCN3C)nc3c(F)c(-c4nc(N)cc(C)c4C(F)(F)F)c(Cl)cc23)C(C)C1
viability, T/C (second compound 0.00316 µM, first compound 0.0316 µM): 109% | viability, T/C (second compound 0.00316 µM, first compound 0.1 µM): 111% | viability, T/C (second compound 0.00316 µM, first compound 0.316 µM): 120% | viability, T/C (second compound 0.00316 µM, first compound 1 µM): 140% | viability, T/C (second compound 0.00316 µM, first compound 3.16 µM): 118% | viability, T/C (second compound 0.00316 µM, first compound 10 µM): 53.5% | viability, T/C (second compound 0.01 µM, first compound 0.0316 µM): 106% | viability, T/C (second compound 0.01 µM, first compound 0.1 µM): 114% | viability, T/C (second compound 0.01 µM, first compound 0.316 µM): 121% | viability, T/C (second compound 0.01 µM, first compound 1 µM): 120% | viability, T/C (second compound 0.01 µM, first compound 3.16 µM): 97.1% | viability, T/C (second compound 0.01 µM, first compound 10 µM): 59.9% | viability, T/C (second compound 0.0316 µM, first compound 0.0316 µM): 102% | viability, T/C (second compound 0.0316 µM, first compound 0.1 µM): 112% | viability, T/C (second compound 0.0316 µM, first compound 0.316 µM): 114% | viability, T/C (second compound 0.0316 µM, first compound 1 µM): 119% | viability, T/C (second compound 0.0316 µM, first compound 3.16 µM): 122% | viability, T/C (second compound 0.0316 µM, first compound 10 µM): 59.5% | viability, T/C (second compound 0.1 µM, first compound 0.0316 µM): 118% | viability, T/C (second compound 0.1 µM, first compound 0.1 µM): 103% | viability, T/C (second compound 0.1 µM, first compound 0.316 µM): 113% | viability, T/C (second compound 0.1 µM, first compound 1 µM): 114% | viability, T/C (second compound 0.1 µM, first compound 3.16 µM): 107% | viability, T/C (second compound 0.1 µM, first compound 10 µM): 48.6% | viability, T/C (second compound 0.316 µM, first compound 0.0316 µM): 114% | viability, T/C (second compound 0.316 µM, first compound 0.1 µM): 104% | viability, T/C (second compound 0.316 µM, first compound 0.316 µM): 113% | viability, T/C (second compound 0.316 µM, first compound 1 µM): 117% | viability, T/C (second compound 0.316 µM, first compound 3.16 µM): 116% | viability, T/C (second compound 0.316 µM, first compound 10 µM): 65% | viability, T/C (second compound 1 µM, first compound 0.0316 µM): 112% | viability, T/C (second compound 1 µM, first compound 0.1 µM): 98.6% | viability, T/C (second compound 1 µM, first compound 0.316 µM): 111% | viability, T/C (second compound 1 µM, first compound 1 µM): 131% | viability, T/C (second compound 1 µM, first compound 3.16 µM): 112% | viability, T/C (second compound 1 µM, first compound 10 µM): 61.2%
